The text below walks through data of ChEMBL document CHEMBL3822390, “Synthesis, characterization and anti-cancer activity of a peptide nucleolipid bioconjugate” (2016).

Holding throughout (assay type): functional
Assay [1] concerns U-251. Kind of assay: Cytotoxicity against human U251 cells assessed as cell growth at 10 uM after 48 hrs by SRB assay. To be noted: U-251, 48 h, read-out: Activity. In general terms: Sulforhodamine B stains cellular protein and so reports cell mass.
In assay [2] the test system is NCI-H226. Briefly: Cytotoxicity against human NCI-H226 cells assessed as cell growth at 10 uM after 48 hrs by SRB assay. To be noted: NCI-H226, 48 h, read-out: Activity.
A short description of assay [3]: Cytotoxicity against human LOXIMVI cells assessed as cell growth at 10 uM after 48 hrs by SRB assay. As to conditions: LOX IMVI, read-out: Activity.
Assay [4] can be described thus: Cytotoxicity against human IGROV1 cells assessed as cell growth at 10 uM after 48 hrs by SRB assay. To be noted: IGROV-1, 48 h, read-out: Activity.
Assay [5] is described as follows: Cytotoxicity against human SF295 cells assessed as cell growth at 10 uM after 48 hrs by SRB assay. To be noted: SF-295, 48 h, read-out: Activity.
The nature of assay [6]: Cytotoxicity against human OVCAR3 cells assessed as cell growth at 10 uM after 48 hrs by SRB assay. To be noted: OVCAR-3, 48 h, read-out: Activity.
The subject of assay [7] is MCF7. Briefly: Cytotoxicity against human MCF7 cells assessed as cell growth at 10 uM after 48 hrs by SRB assay. As to conditions: MCF7, 48 h, read-out: Activity.
Assay [8] has as its system SK-MEL-5. Kind of assay: Cytotoxicity against human SK-MEL-5 cells assessed as cell growth at 10 uM after 48 hrs by SRB assay. As to conditions: SK-MEL-5, 48 h, read-out: Activity.
A short description of assay [9]: Cytotoxicity against human TK10 cells assessed as cell growth at 10 uM after 48 hrs by SRB assay. To be noted: TK-10, 48 h, read-out: Activity.
The subject of assay [10] is K562. Briefly: Cytotoxicity against human K562 cells assessed as cell growth at 10 uM after 48 hrs by SRB assay. To be noted: K562, 48 h, read-out: Activity.
Assay [11] can be described thus: Cytotoxicity against human UACC62 cells assessed as cell growth at 10 uM after 48 hrs by SRB assay. As to conditions: UACC-62, 48 h, read-out: Activity.
For assay [12], the system named is A498. Briefly: Cytotoxicity against human A498 cells assessed as cell growth at 10 uM after 48 hrs by SRB assay. To be noted: A498, 48 h, read-out: Activity.
A short description of assay [13]: Cytotoxicity against human OVCAR5 cells assessed as cell growth at 10 uM after 48 hrs by SRB assay. As to conditions: OVCAR-5, 48 h, read-out: Activity.
Assay [14] is described as follows: Cytotoxicity against human HCC2998 cells assessed as cell growth at 7.25 uM after 48 hrs by SRB assay. As to conditions: HCC 2998, 48 h, read-out: Activity.
The test system of assay [15] is MCF7. Kind of assay: Cytotoxicity against human MCF7 cells assessed as cell growth at 7.25 uM after 48 hrs by SRB assay. To be noted: MCF7, 48 h, read-out: Activity.
Assay [16] is described as follows: Cytotoxicity against human DU145 cells assessed as cell growth at 7.25 uM after 48 hrs by SRB assay. To be noted: DU-145, 48 h, read-out: Activity.
Assay [17] concerns SN12C. Kind of assay: Cytotoxicity against human SN12C cells assessed as cell growth at 7.25 uM after 48 hrs by SRB assay. As to conditions: read-out: Activity.
Assay [18] relates to A549. Kind of assay: Cytotoxicity against human A549 cells assessed as cell mortality at 7.25 uM after 48 hrs by SRB assay. As to conditions: A549, 48 h.
The nature of assay [19]: Cytotoxicity against human RXF393 cells assessed as cell growth at 7.25 uM after 48 hrs by SRB assay. As to conditions: RXF 393, 48 h, read-out: Activity.
The subject of assay [20] is SK-MEL-2. Briefly: Cytotoxicity against human SK-MEL-2 cells assessed as cell growth at 7.25 uM after 48 hrs by SRB assay. To be noted: SK-MEL-2, 48 h, read-out: Activity.
Assay [21] can be described thus: Cytotoxicity against human UACC62 cells assessed as cell growth at 7.25 uM after 48 hrs by SRB assay. To be noted: UACC-62, 48 h, read-out: Activity.
Assay [22] concerns U-251. Briefly: Cytotoxicity against human U251 cells assessed as cell growth at 7.25 uM after 48 hrs by SRB assay. To be noted: U-251, 48 h, read-out: Activity.
For assay [23], the system named is NCI-H460. Briefly: Cytotoxicity against human NCI-H460 cells assessed as cell growth at 7.25 uM after 48 hrs by SRB assay. As to conditions: NCI-H460, 48 h, read-out: Activity.
Assay [24] relates to T47D. Briefly: Cytotoxicity against human T47D cells assessed as cell growth at 7.25 uM after 48 hrs by SRB assay. To be noted: read-out: Activity.
In assay [25] the test system is Malme-3M. Briefly: Cytotoxicity against human MALME-3M cells assessed as cell growth at 7.25 uM after 48 hrs by SRB assay. As to conditions: read-out: Activity.
Assay [26] concerns NCI-H522. Briefly: Cytotoxicity against human NCI-H522 cells assessed as cell growth at 7.25 uM after 48 hrs by SRB assay. As to conditions: NCI-H522, 48 h, read-out: Activity.
Assay [27] in a line: Cytotoxicity against human TK10 cells assessed as cell growth at 7.25 uM after 48 hrs by SRB assay. As to conditions: TK-10, 48 h, read-out: Activity.
Assay [28] can be described thus: Cytotoxicity against human Hs 578T cells assessed as cell growth at 7.25 uM after 48 hrs by SRB assay. As to conditions: read-out: Activity.
A short description of assay [29]: Cytotoxicity against human OVCAR5 cells assessed as cell growth at 2.13 uM after 48 hrs by SRB assay. As to conditions: OVCAR-5, 48 h, read-out: Activity.
Assay [30] has as its system SN12C. Kind of assay: Cytotoxicity against human SN12C cells assessed as cell growth at 2.13 uM after 48 hrs by SRB assay. To be noted: read-out: Activity.
For assay [31], the system named is A498. Kind of assay: Cytotoxicity against human A498 cells assessed as cell growth at 2.13 uM after 48 hrs by SRB assay. To be noted: A498, 48 h, read-out: Activity.
For assay [32], the system named is A549. Kind of assay: Cytotoxicity against human A549 cells assessed as cell mortality at 2.13 uM after 48 hrs by SRB assay. As to conditions: A549, 48 h.
Assay [33] in a line: Cytotoxicity against human SNB75 cells assessed as cell growth at 2.13 uM after 48 hrs by SRB assay. To be noted: SNB-75, 48 h, read-out: Activity.
The subject of assay [34] is SK-MEL-5. Kind of assay: Cytotoxicity against human SK-MEL-5 cells assessed as cell growth at 2.13 uM after 48 hrs by SRB assay. To be noted: SK-MEL-5, 48 h, read-out: Activity.
The subject of assay [35] is Malme-3M. Kind of assay: Cytotoxicity against human MALME-3M cells assessed as cell growth at 2.13 uM after 48 hrs by SRB assay. To be noted: read-out: Activity.
Assay [36] relates to MDA-MB-435. Kind of assay: Cytotoxicity against human MDA-MB-435 cells assessed as cell growth at 2.13 uM after 48 hrs by SRB assay. As to conditions: MDA-MB-435, 48 h, read-out: Activity.
Assay [37] in a line: Cytotoxicity against human PC3 cells assessed as cell growth at 2.13 uM after 48 hrs by SRB assay. To be noted: PC-3, 48 h, read-out: Activity.
Assay [38] in a line: Cytotoxicity against human UACC62 cells assessed as cell growth at 2.13 uM after 48 hrs by SRB assay. To be noted: UACC-62, 48 h, read-out: Activity.
A short description of assay [39]: Cytotoxicity against human OVCAR3 cells assessed as cell growth at 2.13 uM after 48 hrs by SRB assay. As to conditions: OVCAR-3, 48 h, read-out: Activity.
For assay [40], the system named is NCI-H226. Kind of assay: Cytotoxicity against human NCI-H226 cells assessed as cell mortality at 2.13 uM after 48 hrs by SRB assay. As to conditions: NCI-H226, 48 h.
The nature of assay [41]: Cytotoxicity against human SF295 cells assessed as cell growth at 2.13 uM after 48 hrs by SRB assay. As to conditions: SF-295, 48 h, read-out: Activity.
Assay [42] relates to SR. Kind of assay: Cytotoxicity against human SR cells assessed as cell growth at 2.13 uM after 48 hrs by SRB assay. As to conditions: read-out: Activity.

As to `CC(C)C[C@H](NC(=O)[C@H](CCCCN)NC(=O)[C@H](C)NC(=O)[C@H](CC(C)C)NC(=O)[C@H](CCCCN)NC(=O)[C@H](CCCCN)NC(=O)[C@H](C)NC(=O)[C@H](CC(C)C)NC(=O)[C@H](CCCCN)NC(=O)[C@H](C)NC(=O)[C@H](CC(C)C)NC(=O)[C@H](CCCCN)NC(=O)[C@@H](N)CC(=O)O)C(=O)N[C@@H](C)C(=O)N[C@@H](CCCCN)C(=O)N[C@@H](C)C(=O)N[C@@H](CCCCN)C(N)=O`, the growth at 10 µM in [1] amounted to 94.6%; in assay [2], 99.1%; in [3] it was 97.2%; in assay [4] it was 107%; in [5], 103%; in assay [6] it was 100%. In addition, the growth at 10 µM in assay [7] came to 96.7%; in [8] it was 101%; in [9], 94.4%; in assay [10] it was 99.8%; in assay [11], 104%; in [12], 115%. The growth at 10 µM in assay [13] was determined as 98.6%.

Broadly, the mortality is the share of the test organisms that died. With `CCCCCCCCCCCCCCCC(=O)NCCCC[C@H](NC(=O)[C@H](C)NC(=O)[C@H](CCCCN)NC(=O)[C@H](C)NC(=O)[C@H](CC(C)C)NC(=O)[C@H](CCCCN)NC(=O)[C@H](C)NC(=O)[C@H](CC(C)C)NC(=O)[C@H](CCCCN)NC(=O)[C@H](CCCCN)NC(=O)[C@H](C)NC(=O)[C@H](CC(C)C)NC(=O)[C@H](CCCCN)NC(=O)[C@H](C)NC(=O)[C@H](CC(C)C)NC(=O)[C@H](CCCCN)NC(=O)[C@@H](N)CC(=O)O)C(N)=O`, the growth at 7.25 µM in [14] is 101%; in assay [15], 98.7%; in [16] it was 123%; in assay [17], 104%; in assay [19], 111%; in assay [20] it was 93.1%. Besides, the growth at 7.25 µM is 102% in assay [21]; 91.3% in [22]; 107% in [23]; 99% in assay [24]; 102% in [25]; 83.5% in assay [26]. Further, the growth at 7.25 µM amounted to 92.1% in [27] and 101% in [28]. Also, the mortality at 7.25 µM in assay [18] turned out to be 32%.

With `CCCCCCCCCCCCCCCCNCCO[C@H]1C[C@H](n2cc(C)c(=O)[nH]c2=O)O[C@@H]1C(=O)NCCCC[C@H](NC(=O)[C@H](C)NC(=O)[C@H](CCCCN)NC(=O)[C@H](C)NC(=O)[C@H](CC(C)C)NC(=O)[C@H](CCCCN)NC(=O)[C@H](C)NC(=O)[C@H](CC(C)C)NC(=O)[C@H](CCCCN)NC(=O)[C@H](CCCCN)NC(=O)[C@H](C)NC(=O)[C@H](CC(C)C)NC(=O)[C@H](CCCCN)NC(=O)[C@H](C)NC(=O)[C@H](CC(C)C)NC(=O)[C@H](CCCCN)NC(=O)[C@@H](N)CC(=O)O)C(N)=O`, the growth at 2.13 µM in [29] was found to be 105%; in [30], 103%; in assay [31], 109%; in assay [33] it was 96.1%; in assay [34], 105%; in [35] it was 104%. Moreover, the growth at 2.13 µM in assay [36] turned out to be 109%; in assay [37], 92.3%; in [38], 104%; in [39] it was 107%; in assay [41], 97.7%; in [42] it was 96.6%. Also, the mortality at 2.13 µM in [32] was found to be 31%; in assay [40], 4%.
